target: T1, POLγ W748S + E1143G (Homo sapiens, UniProt P54098, E1143G/W748S); experiment: DNA polymerization assay, W748S + E1143G mutant; type: biochemical; settings: stimulation of polymerase activity, primed M13mp18 ssDNA, 37° C. 2 hours
T1 sequence (P54098 1-1239 W748S/E1143G): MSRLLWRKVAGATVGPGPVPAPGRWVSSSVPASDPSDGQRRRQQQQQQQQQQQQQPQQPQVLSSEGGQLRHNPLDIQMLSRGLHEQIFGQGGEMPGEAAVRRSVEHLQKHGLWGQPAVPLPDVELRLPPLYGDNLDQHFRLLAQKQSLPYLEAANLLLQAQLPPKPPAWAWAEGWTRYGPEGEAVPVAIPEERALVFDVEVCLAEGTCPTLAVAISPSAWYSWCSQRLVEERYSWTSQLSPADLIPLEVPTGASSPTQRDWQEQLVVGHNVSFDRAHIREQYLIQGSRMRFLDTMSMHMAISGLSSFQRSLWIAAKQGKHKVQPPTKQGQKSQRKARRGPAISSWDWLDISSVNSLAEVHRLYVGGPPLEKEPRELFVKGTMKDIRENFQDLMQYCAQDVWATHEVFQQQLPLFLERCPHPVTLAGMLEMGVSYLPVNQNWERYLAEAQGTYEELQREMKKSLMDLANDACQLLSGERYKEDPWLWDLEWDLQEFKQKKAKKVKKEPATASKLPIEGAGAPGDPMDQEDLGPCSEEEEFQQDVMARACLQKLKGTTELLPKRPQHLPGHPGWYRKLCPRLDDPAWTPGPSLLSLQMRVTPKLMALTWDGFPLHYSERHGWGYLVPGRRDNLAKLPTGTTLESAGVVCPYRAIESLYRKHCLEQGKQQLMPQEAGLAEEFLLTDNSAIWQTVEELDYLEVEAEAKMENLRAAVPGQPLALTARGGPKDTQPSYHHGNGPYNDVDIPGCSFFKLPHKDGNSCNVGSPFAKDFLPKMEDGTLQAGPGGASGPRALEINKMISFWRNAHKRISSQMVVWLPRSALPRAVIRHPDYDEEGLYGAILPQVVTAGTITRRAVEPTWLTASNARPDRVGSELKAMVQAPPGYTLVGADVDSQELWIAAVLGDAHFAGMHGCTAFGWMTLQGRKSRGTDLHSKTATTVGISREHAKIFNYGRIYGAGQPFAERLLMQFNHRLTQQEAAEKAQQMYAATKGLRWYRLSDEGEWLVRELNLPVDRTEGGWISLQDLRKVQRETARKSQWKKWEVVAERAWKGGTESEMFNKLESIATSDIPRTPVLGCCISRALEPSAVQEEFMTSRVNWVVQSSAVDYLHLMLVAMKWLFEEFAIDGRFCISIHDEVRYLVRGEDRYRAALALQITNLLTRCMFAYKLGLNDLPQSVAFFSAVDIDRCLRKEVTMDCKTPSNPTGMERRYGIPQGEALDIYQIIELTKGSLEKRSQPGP
T1 sequence (Q9UHN1 1-485 partner): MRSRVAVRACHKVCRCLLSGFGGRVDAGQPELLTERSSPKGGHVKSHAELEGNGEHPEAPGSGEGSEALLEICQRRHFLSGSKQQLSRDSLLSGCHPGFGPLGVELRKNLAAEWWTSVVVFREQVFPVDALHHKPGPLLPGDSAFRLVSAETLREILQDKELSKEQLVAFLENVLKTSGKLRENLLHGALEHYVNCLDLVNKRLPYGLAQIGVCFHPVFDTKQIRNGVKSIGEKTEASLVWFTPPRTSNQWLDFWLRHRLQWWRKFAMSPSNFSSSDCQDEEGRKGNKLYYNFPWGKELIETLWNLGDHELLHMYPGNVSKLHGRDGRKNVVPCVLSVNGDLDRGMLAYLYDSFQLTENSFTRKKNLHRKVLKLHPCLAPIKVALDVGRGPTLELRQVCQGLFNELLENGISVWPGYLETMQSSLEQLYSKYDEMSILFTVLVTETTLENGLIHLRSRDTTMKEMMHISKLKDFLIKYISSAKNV
Description: DNA Polymerization Assay to Monitor Effects on Human Wildtype POLγ and Four Disease-Causing Mutant Variants of Human POLγ.
The ability of small molecules to stimulate the polymerase activity of POLγ was analyzed in a quantitative fluorescence SYBR Green I assay with fluorescence intensity (FI) readout.
In the presence of dNTPs, wild type human POLγ and mutant derivatives thereof were incubated with single-stranded, circular M13mp18 ssDNA hybridized to a short DNA oligonucleotide that functions as a primer for initiation of DNA synthesis. POLγ and mutant derivatives thereof will extend the primer and use the M13mp18 molecule as a template to synthesize long stretches of double-stranded DNA. SYBR Green I, which is a double-stranded DNA-binding dye, was used to quantify formation of double-stranded DNA in the reaction. When bound to double-stranded DNA, SYBR Green I fluorescence increases by up to 100-fold.
The assay was performed in the 384-well plate format. Upon addition of compounds, changes in double-stranded DNA synthesis activity can be monitored by following effects on fluorescent intensity.
The reactions also contained the accessory POLγB subunit, and the human mitochondrial single-stranded DNA binding protein (mtSSB).
The DNA template mixture used in the assay contained 0.5 nM primed M13 mp18 ssDNA, 400 nM mtSSB, 0.1 mM Tris-HCl (pH 8.0), 0.1 mM dNTP, 10 mM MgCl2, 0.1 mg/mL BSA, 1 mM TCEP solution, and 0.02% Triton X-100. The DNA template mixture for the wild type protein contained either 100 μM dNTP, 1 μM dNTP, or 0.1 μM dNTP, designated in Table 2 as 100 μM, 1 μM, and 0.1 μM, respectfully.
Microplates with compounds (0.1 μL in each well) to be tested in the assay were prepared from 10 mM compound stocks in 100% DMSO, and equal amounts of DMSO without any compound were added to positive and negative control wells.
The protein mixture was dispensed (5 μL into each well) into compound plates and incubated at 37° C. for 15 minutes. After incubation, 5 μL of the DNA template mixture was dispensed into each well. The plates were then incubated at 37° C. for 2 hours.
During incubation, a combined stop buffer and detection reagent solution was prepared. The buffer contained 25 mM EDTA (pH 8.0), 0.02% Triton X-100, and SYBR Green I [Invitrogen] diluted 10,000× (for fluorescent readout). EDTA will stop the enzymatic reaction by chelating magnesium ions.

Row | SMILES | AC50 [µM]
1 | Cc1csc(-c2cccc(NS(=O)(=O)c3cc(C)c(Cl)cc3C)c2)n1 [Example 20, 4-chloro-2,5-dimethyl-N-(3-(4-methylthiazol-2-yl)phenyl)benzenesulfonamide] | 2
2 | Cc1cnc(-c2cccc(NS(=O)(=O)c3cc(C)c(Cl)cc3C)c2)s1 [Example 21, 4-chloro-2,5-dimethyl-N-(3-(5-methylthiazol-2-yl)phenyl)benzenesulfonamide] | 3
3 | Cc1cc(S(=O)(=O)N(C)c2cccc(-c3nccs3)c2)c(C)cc1Cl [Example 22, 4-chloro-N,2,5-trimethyl-N-(3-(thiazol-2-yl)phenyl)benzenesulfonamide] | > 100
4 | Cc1cc(S(=O)(=O)Nc2cccc(C(=O)N[C@H](C)c3ccccc3)c2)c(C)cc1Cl [Example 48, (R)-3-((4-chloro-2,5-dimethylphenyl)sulfonamido)-N-(1-phenylethyl)benzamide] | 9
5 | Cc1cc(S(=O)(=O)Nc2cc(-c3nccs3)ccc2F)c(C)cc1Cl [Example 61, 4-chloro-N-(2-fluoro-5-(thiazol-2-yl)phenyl)-2,5-dimethylbenzenesulfonamide] | 0.7
6 | Cc1cc(S(=O)(=O)Nc2cc(F)cc(-c3nccs3)c2)c(C)cc1Cl [Example 62, 4-chloro-N-(3-fluoro-5-(thiazol-2-yl)phenyl)-2,5-dimethylbenzenesulfonamide] | > 100
7 | Cc1cc(S(=O)(=O)Nc2ccc(F)c(-c3nccs3)c2)c(C)cc1Cl [Example 63, 4-chloro-N-(4-fluoro-3-(thiazol-2-yl)phenyl)-2,5-dimethylbenzenesulfonamide] | > 100
8 | Cc1cc(S(=O)(=O)Nc2cccc(-c3cc(C4CC4)[nH]n3)c2)c(C)cc1Cl [Example 64, 4-chloro-N-(3-(5-cyclopropyl-1H-pyrazol-3-yl)phenyl)-2,5-dimethylbenzenesulfonamide] | 4
9 | CC[C@@H]1CCCN1C(=O)c1cccc(NS(=O)(=O)c2cc(C)c(Cl)cc2C)c1 [Example 65, (R)-4-chloro-N-(3-(2-ethylpyrrolidine-1-carbonyl)phenyl)-2,5-dimethylbenzenesulfonamide] | 7
10 | Cc1cc(-c2cccc(NS(=O)(=O)c3cc(C)c(Cl)cc3C)c2)n[nH]1 [Example 66, 4-chloro-2,5-dimethyl-N-(3-(5-methyl-1H-pyrazol-3-yl)phenyl)benzenesulfonamide] | 5
11 | Cc1cc(S(=O)(=O)Nc2cccc(C(=O)N3CCC[C@H]3C(C)C)c2)c(C)cc1Cl [Example 67, (S)-4-chloro-N-(3-(2-isopropylpyrrolidine-1-carbonyl)phenyl)-2,5-dimethylbenzenesulfonamide] | 21
12 | Cc1cc(S(=O)(=O)Nc2cccc(-c3cc[nH]n3)c2)c(C)cc1Cl [Example 68, N-(3-(1H-pyrazol-3-yl)phenyl)-4-chloro-2,5-dimethylbenzenesulfonamide] | 2
13 | Cc1cc(S(=O)(=O)Nc2csc(C(=O)N3CCCC3)n2)c(C)cc1Cl [Example 166, 4-chloro-2,5-dimethyl-N-(2-(pyrrolidine-1-carbonyl)thiazol-4-yl)benzenesulfonamide] | 0.4
14 | Cc1cc(S(=O)(=O)Nc2csc(C3CCOCC3)n2)c(C)cc1Cl [Example 167, 4-chloro-2,5-dimethyl-N-(2-(tetrahydro-2H-pyran-4-yl)thiazol-4-yl)benzenesulfonamide] | 2
15 | Cc1cc(S(=O)(=O)Nc2cn(Cc3ccccc3)cn2)c(C)cc1Cl [Example 168, N-(1-benzyl-1H-imidazol-4-yl)-4-chloro-2,5-dimethylbenzenesulfonamide] | > 100
16 | Cc1cc(S(=O)(=O)Nc2cn(-c3ccccc3)cn2)c(C)cc1Cl [Example 169, 4-chloro-2,5-dimethyl-N-(1-phenyl-1H-imidazol-4-yl)benzenesulfonamide] | > 100
17 | Cc1cc(S(=O)(=O)Nc2cn(C)c(-c3ccccc3)n2)c(C)cc1Cl [Example 170, 4-chloro-2,5-dimethyl-N-(1-methyl-2-phenyl-1H-imidazol-4-yl)benzenesulfonamide] | > 10
18 | Cc1cc(S(=O)(=O)Nc2cnn(-c3ccccc3)n2)c(C)cc1Cl [Example 171, 4-chloro-2,5-dimethyl-N-(2-phenyl-2H-1,2,3-triazol-4-yl)benzenesulfonamide] | > 10
19 | Cc1cc(S(=O)(=O)Nc2csc(C(=O)N(C)CC(N)=O)n2)c(C)cc1Cl [Example 172, N-(2-amino-2-oxoethyl)-4-((4-chloro-2,5-dimethylphenyl)sulfonamido)-N-methylthiazole-2-carboxamide] | > 100
20 | Cc1cc(S(=O)(=O)Nc2csc(-c3ccccn3)n2)c(C)cc1Cl [Example 173, 4-chloro-2,5-dimethyl-N-(2-(pyridin-2-yl)thiazol-4-yl)benzenesulfonamide] | 0.4
21 | Cc1cc(S(=O)(=O)Nc2csc(C(=O)N3CCC[C@H]3C)n2)c(C)cc1Cl [Example 174, (R)-4-chloro-2,5-dimethyl-N-(2-(2-methylpyrrolidine-1-carbonyl)thiazol-4-yl)benzenesulfonamide] | 0.7
22 | Cc1cc(S(=O)(=O)Nc2csc(-c3ccncc3)n2)c(C)cc1Cl [Example 176, 4-chloro-2,5-dimethyl-N-(2-(pyridin-4-yl)thiazol-4-yl)benzenesulfonamide] | 0.3
23 | Cc1cc(S(=O)(=O)Nc2csc(C(=O)N(CC(N)=O)C3CCCC3)n2)c(C)cc1Cl [Example 177, N-(2-amino-2-oxoethyl)-4-((4-chloro-2,5-dimethylphenyl)sulfonamido)-N-cyclopentylthiazole-2-carboxamide] | > 100
24 | Cc1cc(S(=O)(=O)Nc2csc(-n3cccn3)n2)c(C)cc1Cl [Example 178, N-(2-(1H-pyrazol-1-yl)thiazol-4-yl)-4-chloro-2,5-dimethylbenzenesulfonamide] | 1

From patent US20260138961A1, “MODULATORS OF MITOCHONDRIAL DNA REPLICATION” (Pretzel Therapeutics, Inc., priority 2022, published 2026)
